Reference: ChEMBL document CHEMBL1144075, “New cembranes from the soft coral sarcophyton species” (J Nat Prod, 1999)

Test system: Oryzias latipes
Assay: Ichthyotoxicity against Oryzias latipes at 20 ug/mL
Assay type: organism-based
Conditions: in vivo

With `C/C1=C/C[C@@H](C(C)C)/C=C/[C@](C)(O)CC/C=C(\C)CC(=O)C1` [SARTONE E] the Activity was “Non-toxic”.
